How the values were obtained:
MV4-11 cells = assay: CellTiter-Blue cell viability, MV-4-11; assay type: cell-based; conditions: Homo sapiens, 72 hrs exposure
Experimental: (§1) Anti-cancer efficacy of exemplary compounds of this application was assessed in vitro in different cancer cell lines. Cell viability was examined following treatment at various concentration of inhibitor (0.097656-50 μM) using a cell Titer-Blue cell viability assay. 1×10^4 cells (NHF, MV4-11, K562 and MOLM-13 cells)/well were plated in 96-well assay plates in culture medium. All cells were grown in DMEM, IMDM and RPMI-1640 supplemented with 10% FBS. After 24 hrs, test compounds and vehicle controls were added to appropriate wells so the final volume was 100 μl in each well. The cells were cultured for the desired test exposure period (72 hrs) at 37° C. and 5% CO2. The assay plates were removed from 37° C. incubator and 20 μl/well of CellTiter-Blue® Reagent was added. The plates were incubated using standard cell culture conditions for 1-4 hours and the plates were shaken for 10 seconds and record fluorescence at 560/590 nm.

MOLM-13 cells = assay: CellTiter-Blue cell viability, MOLM-13; assay type: cell-based; conditions: Homo sapiens, 72 hrs exposure
Experimental: as §1

K562 cells = assay: CellTiter-Blue cell viability, K562; assay type: cell-based; conditions: Homo sapiens, 72 hrs exposure
Experimental: as §1

tubulin = assay: Tubulin polymerization assay; assay type: biochemical; conditions: for % Inhibition: Vmax normalized to tubulin only control; for % D.O.P.: degree of polymerization relative to tubulin control
Experimental: A96-well half-area clear flat-bottom microplate (Corning® #3697) was pre-heated in a plate reader (Cytation 3, BioTek) at 37° C. for 15 minutes prior to the start of each assay. Tubulin polymerization buffer (80 mM PIPES pH 6.9, 2 mM MgCl2, 0.5 mM EGTA, 15% glycerol, 1 mM GTP) was prepared from stock solutions and placed on ice. Inhibitors were prepared to M concentrations in buffer (80 mM PIPES pH 6.9, 2 mM MgCl2, 0.5 mM EGTA, 5% DMSO) from DMSO stock solutions. After the assay plate was pre-warmed, 10 μL of inhibitor or buffer control was added to selected wells. Every assay contained a tubulin only negative control for normalization of data, and a batabulin positive control. The assay plate was incubated at 37° C. for 3 minutes. During this time, a frozen aliquot of tubulin (10 mg/mL) in buffer (80 mM PIPES pH 6.9, 2 mM MgCl2, 0.5 mM EGTA) was defrosted by placing in a room temperature water bath. Once thawed, 200 μL of tubulin was mixed with 420 μL ice cold tubulin polymerization buffer (3 mg/mL tubulin in 80 mM PIPES, pH 6.9, 2 mM MgCl2, 0.5 mM EGTA, 1 mM GTP, 10.2% glycerol). To a 96-well plate on ice, aliquots of 100 μL tubulin was added to each well. From this plate, 90 μL of tubulin was immediately pipetted into all sample wells of the warmed assay plate using a multi-channel pipette. The assay plate was immediately put in the reader at 37° C. and shook for 5 s with orbital shaking at medium speed. The reader recorded the absorbance at 340 nm every 15 s for 30 min.
The resulting absorbance curves were normalized by subtracting each data point by the absorbance at time 0.
The largest change in absorbance over the assay time course was also recorded and related to the tubulin control as the % degree of polymerization (% D.O.P.).

IC50 (MV4-11 cells) [nM] | IC50 (MOLM-13 cells) [nM] | IC50 (K562 cells) [nM] | SMILES | % Inhibition (tubulin) | % D.O.P. (tubulin)
≤ 100 | 100 to 1000 | 100 to 1000 | COc1ccc(NS(=O)(=O)c2c(F)c(F)c(F)c(F)c2OC)cc1F [Compound I-64, 2,3,4,5-tetrafluoro-N-(3-fluoro-4-methoxyphenyl)-6-methoxybenzenesulfonamide] | A (<10%) | A (>85%)
1000 to 10000 | 1000 to 10000 | > 10000 | CC(C)Oc1c(F)c(F)c(F)c(F)c1S(=O)(=O)N(C)C [Compound I-6, 2,3,4,5-tetrafluoro-6-isopropoxy-N,N-dimethylbenzenesulfonamide] | – | –
100 to 1000 | 1000 to 10000 | > 10000 | COc1ccc(NS(=O)(=O)c2c(F)c(F)c(F)c(F)c2C(=O)O)cc1F [Compound I-92, 2,3,4,5-tetrafluoro-6-(N-(3-fluoro-4-methoxyphenyl)sulfamoyl)benzoic acid] | – | –
100 to 1000 | 1000 to 10000 | 1000 to 10000 | COc1ccc(NS(=O)(=O)c2c(F)c(F)c(F)c(F)c2OCC2COC2)cc1F [Compound I-73, 2,3,4,5-tetrafluoro-N-(3-fluoro-4-methoxyphenyl)-6-(oxetan-3-ylmethoxy)benzenesulfonamide] | A (<10%) | A (>85%)
≤ 100 | ≤ 100 | ≤ 100 | COc1ccc(NS(=O)(=O)c2c(F)c(F)c(F)c(F)c2OCF)cc1F [Compound I-83, 2,3,4,5-tetrafluoro-N-(3-fluoro-4-methoxyphenyl)-6-(fluoromethoxy)benzenesulfonamide] | C (>20%) | B (< 85%)
1000 to 10000 | 1000 to 10000 | > 10000 | CNc1c(F)c(F)c(F)c(F)c1S(=O)(=O)N(C)C [Compound I-49, 2,3,4,5-tetrafluoro-N,N-dimethyl-6-(methylamino)benzenesulfonamide] | – | –
– | 1000 to 10000 | > 10000 | CN(C)S(=O)(=O)c1c(F)c(F)c(F)c(F)c1OC(=O)C(C)(C)C [Compound I-20, 2-(N,N-dimethylsulfamoyl)-3,4,5,6-tetrafluorophenyl pivalate] | – | –
≤ 100 | 100 to 1000 | ≤ 100 | COc1ccc(NS(=O)(=O)c2cc(F)c(F)c(F)c2F)cc1F [Compound I-93, 2,3,4,5-tetrafluoro-N-(3-fluoro-4-methoxyphenyl)benzenesulfonamide] | C (>20%) | B (< 85%)
> 10000 | > 10000 | > 10000 | CN(C)S(=O)(=O)c1c(F)c(F)c(F)c(F)c1OC(=O)OC(C)(C)C [Compound I-21, tert-butyl (2-(N,N-dimethylsulfamoyl)-3,4,5,6-tetrafluorophenyl) carbonate] | – | –
1000 to 10000 | 1000 to 10000 | > 10000 | CN(C)S(=O)(=O)c1c(F)c(F)c(F)c(F)c1OCc1ccccn1 [Compound I-19, 2,3,4,5-tetrafluoro-N,N-dimethyl-6-(pyridin-2-ylmethoxy)benzenesulfonamide] | – | –
1000 to 10000 | 1000 to 10000 | > 10000 | CN(C)C(=O)c1c(F)c(F)c(F)c(F)c1S(=O)(=O)N(C)C [Compound I-37, 2-(N,N-dimethylsulfamoyl)-3,4,5,6-tetrafluoro-N,N-dimethylbenzamide] | – | –
100 to 1000 | 1000 to 10000 | > 10000 | COC(=O)c1c(F)c(F)c(F)c(F)c1S(=O)(=O)N(C)C [Compound I-31, methyl 2-(N,N-dimethylsulfamoyl)-3,4,5,6-tetrafluorobenzoate] | – | –
1000 to 10000 | 1000 to 10000 | > 10000 | CN(C)S(=O)(=O)c1c(F)c(F)c(F)c(F)c1OCc1ccc(C(N)=O)cc1 [Compound I-18, 4-((2-(N,N-dimethylsulfamoyl)-3,4,5,6-tetrafluorophenoxy)methyl)benzamide] | – | –
– | 1000 to 10000 | > 10000 | Cc1c(F)c(F)c(F)c(F)c1S(=O)(=O)N(C)C [Compound I-25, 2,3,4,5-tetrafluoro-N,N,6-trimethylbenzenesulfonamide] | – | –
1000 to 10000 | > 10000 | 1000 to 10000 | CN(C)S(=O)(=O)c1c(F)c(F)c(F)c(F)c1Nc1cccnc1 [Compound I-52, 2,3,4,5-tetrafluoro-N,N-dimethyl-6-(pyridin-3-ylamino)benzenesulfonamide] | – | –
1000 to 10000 | 1000 to 10000 | > 10000 | CC(=O)c1c(F)c(F)c(F)c(F)c1S(=O)(=O)N(C)C [Compound I-26, 2-acetyl-3,4,5,6-tetrafluoro-N,N-dimethylbenzenesulfonamide] | – | –
– | 1000 to 10000 | > 10000 | CN(C)S(=O)(=O)c1c(F)c(F)c(F)c(F)c1OCc1ccncc1 [Compound I-17, 2,3,4,5-tetrafluoro-N,N-dimethyl-6-(pyridin-4-ylmethoxy)benzenesulfonamide] | – | –
– | > 10000 | > 10000 | CCOc1c(F)c(F)c(F)c(F)c1S(=O)(=O)N(C)C [Compound I-5, 2-ethoxy-3,4,5,6-tetrafluoro-N,N-dimethylbenzenesulfonamide] | – | –
1000 to 10000 | 1000 to 10000 | > 10000 | CN(C)S(=O)(=O)c1c(F)c(F)c(F)c(F)c1C1CC1 [Compound I-39, 2-cyclopropyl-3,4,5,6-tetrafluoro-N,N-dimethylbenzenesulfonamide] | – | –
1000 to 10000 | > 10000 | > 10000 | CN(C)S(=O)(=O)c1c(F)c(F)c(F)c(F)c1OC(F)F [Compound I-8, 2-(difluoromethoxy)-3,4,5,6-tetrafluoro-N,N-dimethylbenzenesulfonamide] | – | –
1000 to 10000 | 1000 to 10000 | > 10000 | CN(C)S(=O)(=O)c1c(F)c(F)c(F)c(F)c1NCc1ccccc1 [Compound I-48, 2-(benzylamino)-3,4,5,6-tetrafluoro-N,N-dimethylbenzenesulfonamide] | – | –
100 to 1000 | 1000 to 10000 | > 10000 | CN(C)S(=O)(=O)c1c(F)c(F)c(F)c(F)c1OCc1ccc(F)cc1F [Compound I-16, 2-((2,4-difluorobenzyl)oxy)-3,4,5,6-tetrafluoro-N,N-dimethylbenzenesulfonamide] | – | –
– | 1000 to 10000 | > 10000 | CC(C)S(=O)(=O)Oc1c(F)c(F)c(F)c(F)c1S(=O)(=O)N(C)C [Compound I-22, 2-(N,N-dimethylsulfamoyl)-3,4,5,6-tetrafluorophenyl propane-2-sulfonate] | – | –
1000 to 10000 | 1000 to 10000 | > 10000 | CN(C)S(=O)(=O)c1c(F)c(F)c(F)c(F)c1NCC(F)F [Compound I-54, 2-((2,2-difluoroethyl)amino)-3,4,5,6-tetrafluoro-N,N-dimethylbenzenesulfonamide] | – | –
100 to 1000 | 1000 to 10000 | > 10000 | CC(C)COC(=O)c1c(F)c(F)c(F)c(F)c1S(=O)(=O)N(C)C [Compound I-32, isobutyl 2-(N,N-dimethylsulfamoyl)-3,4,5,6-tetrafluorobenzoate] | – | –
– | 1000 to 10000 | 100 to 1000 | COc1ccc(NS(=O)(=O)c2c(F)c(F)c(F)c(F)c2Oc2ccccc2)cc1F [Compound I-76, 2,3,4,5-tetrafluoro-N-(3-fluoro-4-methoxyphenyl)-6-phenoxybenzenesulfonamide] | C (>20%) | B (< 85%)
100 to 1000 | 1000 to 10000 | – | COc1ccc(NS(=O)(=O)c2c(F)c(F)c(F)c(F)c2OCCF)cc1F [Compound I-66, 2,3,4,5-tetrafluoro-N-(3-fluoro-4-methoxyphenyl)-6-(2-fluoroethoxy)benzenesulfonamide] | B (10-20%) | B (< 85%)
100 to 1000 | 1000 to 10000 | > 10000 | CN(C)S(=O)(=O)c1c(F)c(F)c(F)c(F)c1OCc1ccccc1 [Compound I-2, 2-(benzyloxy)-3,4,5,6-tetrafluoro-N,N-dimethylbenzenesulfonamide] | – | –
1000 to 10000 | 1000 to 10000 | > 10000 | CN(C)S(=O)(=O)c1c(F)c(F)c(F)c(F)c1Cc1ccccc1 [Compound I-24, 2-benzyl-3,4,5,6-tetrafluoro-N,N-dimethylbenzenesulfonamide] | – | –

Reference: patent US12559454B2, “Benzenesulfonamide derivatives and uses thereof” (2692372 Ontario, Inc., priority 2019, dated 2026)
